Experimental data as given in patent EP4818187A1, “COMPOUND AND USE THEREOF” (Ganzhou Hemay Pharmaceutical, Co., Ltd, priority 2023, dated 2025).

System: human gastric cancer NCI-N87
Test: Biological Example 3: in vivo xenograft model of human gastric cancer NCI-N87
Parameters: species or system Balb/c-nu nude mice
Settings: nude mice
Procedure: First, the xenograft model of human gastric cancer NCI-N87 was established subcutaneously in nude mice by inoculation with a cell-matrigel mixture. When the xenograft tumor grew to a volume of 100-300 mm^3 and maintained stable growth, the experimental animals were randomly grouped using remainder method based on the tumor volume and administered with drugs. The tumor volume was measured 2 to 3 times every week. After the dosing period was completed, the experimental animals were killed, and the subcutaneous tumors were excised and weighed. The anti-tumor activity of the drug in this model was evaluated based on relevant data of the tumor volumes and the tumor weights. Table 8: List of experimental animal groups and dosage regimens
Calculation formula of the tumor volume: volume=0.5× long diameter × short diameter^2. Relative tumor volume(RTV): RTV = Vt/ V0 [formula]
V0 is the tumor volume measured at the time of grouping for dosing (i.e., d0), and Vt is the tumor volume measured each time. Relative tumor proliferation rate(T/C): T/C = TRTV /CRTV × 100% [formula]
T is the mean RTV of the test compound, and C is the mean RTV of the model control group. [formula] Body weight change percentage = Wn /W0 × 100% [formula]
Wn: mean body weight of each group of experimental animals on day n, and W0: mean body weight of each group of experimental animals on day 0.
The purchased experimental animals were subjected to balanced feeding for 3 days. A xenograft model was established in nude mice by inoculation with a cell-matrigel mixture: conventionally cultured NCI-N87 cells in the logarithmic growth phase were sampled, digested, collected, and adjusted with PBS to a cell density of 6×10^7 cells/mL. In an ice water bath, the cell suspension was slowly added to an equal volume of matrigel, the system was fully mixed, and then the xenograft model was established by subcutaneous inoculation in the right armpit of male nude mice, with 0.15 mL/mouse and a cell inoculum size of approximately 4.5 million cells/mouse.
The tumor growth of the model animals was regularly observed. When the mean tumor volume of the model nude mice reached about 100-300 mm^3, the experimental animals were randomly grouped using the remainder method based on the tumor volume, and administered with drugs. The day on which the animals were grouped was day 0. After grouping, drugs were administered to each group according to Table 8. The dosage or dosing period can be appropriately adjusted based on the tumor growth and the animal state. After administration, the tumor volumes of the experimental animals were measured 2-3 times every week until the experiment was completed. After the dosing period was completed, the experimental animals were killed, and the subcutaneous tumors were excised and weighed. The anti-tumor activity of each compound in this model was evaluated based on relevant data of the tumor volumes and tumor weights. Table 9: Effect on growth of xenograft model of human gastric cancer NCI-N87
The test was performed based on the dosage regimen in Table 10, following the method in Biological Example 2. Table 10: List of dosage regimens

With `CC[C@H](C)[C@@H]([C@@H](CC(=O)N1CCC[C@H]1[C@H](OC)[C@@H](C)C(=O)N[C@H](C)[C@@H](OCc1ccc(O[C@@H]2O[C@H](C(=O)[O-])[C@@H](O)[C@H](O)[C@H]2O)cc1OCc1cn(CCCCCC(=O)Nc2ccc(-c3ccc(/N=N/c4ccc5c(S(=O)(=O)[O-])cc(S(=O)(=O)[O-])c(N)c5c4O)c(C)c3)cc2C)nn1)c1ccccc1)OC)N(C)C(=O)[C@@H](NC(=O)[C@H](C(C)C)N(C)C)C(C)C.[Na+].[Na+].[Na+]` [Example compound 2] the “Final body weight change (%)” value (15 mg/kg i.v. qw×2) was 11.4%, the “Maximum body weight change (%)” value (15 mg/kg i.v. qw×2) was 11.4, d26% and the “Relative volume RTV (x±S.D.)” value (15 mg/kg i.v. qw×2) was 0.48±0.07. For the same molecule, the “T/C (%)” value (15 mg/kg i.v. qw×2) was 5.9%, the “Tumor inhibition rate (%)” value (15 mg/kg i.v. qw×2) was 96.4% and the “Tumor weight (g, x±S.D.)” value (15 mg/kg i.v. qw×2) was 0.048 ± 0.009 g. For the same molecule, the “Body weight (g, x±S.D.) End” value (15 mg/kg i.v. qw×2, End) was 26.9 ± 1.3 g and the “Body weight (g, x±S.D.) Start” value (15 mg/kg i.v. qw×2, Start) was 24.2 ± 1.5 g.
